Data reported in US20070112018A1, “Treatment of peripheral arterial occlusive disease” (priority 2005, published 2007).
Like-named read-outs stand apart in the source and are kept apart here.

What was measured:
[1] = tested on: Chlamydia; experiment: Phase 2 study in men with non-gonococcal urethritis, eradication of Chlamydia; format: in vivo, human
Excerpt: The use of rifalazil in the treatment of PAOD is supported by both preclinical and clinical lines of evidence.
Due to the recalcitrant response of C. pneumoniae to antibiotic therapy, the duration of therapy is thought to be an important parameter for optimizing treatment. Previous large well-controlled randomized studies have tested long term antibiotic therapy in the CHD population. A longer term treatment schedule with rifalazil than was utilized in eradicating C. trachomatis in NGU (single dose) may represent a preferred therapeutic regimen for producing a clinically beneficial effect on C. pneumoniae in patients with PAOD. Further, dosing of PAOD patients with rifalazil for a duration of 8 weeks may further optimize therapeutic effect against C. pneumoniae in these patients. Chlamydia pneumoniae infects the vasculature, and to elicit significant antibacterial activity against this pathogen, longer courses of treatment than those directed at C. trachomatis (i.e., single dose) are preferred. Pharmacokinetic and pharmacodynamic modeling predict that this dosage will provide continuous plasma and tissue concentrations of rifalazil above the MIC90 for C. pneumoniae for over 9 weeks. A single dose of 25 mg rifalazil administered once per week for up to 4 weeks was not associated with significant adverse effects in Phase 1 studies. […]

[2] = Non-clinical oral pharmacokinetics in the rat; format: in vivo; conditions: for bioavailability: rat, plasma, po
Experimental: (§1) In rats and dogs, the Vdβ/F following oral administration was 40-80 L/kg. […] The highest mean Cmax observed was in the wall of the GI tract and occurred approximately 1 hour post-dose. […] A large tissue compartment of rifalazil is considered important for efficacy against Chlamydia given the intracellular nature of Chlamydia infection.

[3] = Non-clinical oral pharmacokinetics in the beagle dog; format: in vivo
Experimental: as §1

[4] = Tissue distribution in rats after a single oral dose (Study 6510-109); format: in vivo, rat; conditions: for Kp: oral, 3 mg/kg, species not given
Experimental: Distribution to the majority of tissues was higher than observed plasma levels.
as §1

[5] = Placebo-controlled study of 30 mg and 100 mg in healthy volunteers, adverse events; format: in vivo, human
Experimental: In a placebo-controlled study of 30 mg and 100 mg in […], […] received the 30 mg dose of rifalazil. Sixty-two percent of patients (5/8) reported AEs while 33% of placebo subjects (3/9) reported AEs. The only AE of note reported in this rifalazil dose group was headache (38%, […]) compared to the placebo-treated group (11%, 1/9 subjects). […] However, this baseline value was not considered clinically significant nor were subsequent nadir values obtained on Days 3 and 7 (3.8×10^3 cells/mm^3).

[6] = Healthy volunteers, 25 or 50 mg once a week for 4 weeks, adverse events; format: in vivo, human
Experimental: In one study, healthy volunteers received 25 or 50 mg once a week for 4 weeks. The overall incidence of AEs was 33% after the first weekly dose, 12% after the second and third weekly dose, and 0% at the fourth weekly dose. No subject discontinued the study due to AEs, and no serious AEs were reported in this study. The predominant AEs reported in the rifalazil group but not in the placebo group included: back pain (2/6. 33%), chills (3/6, 50%), neck pain (1/6. 17%), insomnia, and a range of gastrointestinal (GI) disturbances such as anorexia, nausea, thirst and vomiting (all in 1/6 patients, 17%).
The lowest individual value for subjects receiving 25 mg/week was 2.2×10^3/mm^3 (Day 25), and for 50-mg/week subjects, 2.3×10^3/mm^3 (Day 11). All values returned to baseline within 2 weeks of cessation of dosing. […] The above normal values at 50 mg/week occurred in 1 subject, and were of moderate Grade 2 severity during the interval from approximately Day 15 to Day 78. […] All values returned to baseline levels within 2 weeks of cessation of dosing.
The phenomenon of accommodation or tolerance with repeat weekly dosing of rifalazil became evident during the course of the study for both the 25-mg and 50-mg doses. In the 25-mg dosage group, the peak incidence of AEs occurred in the first week and decreased substantially over the remaining weeks.

[7] = tested on: C. trachomatis; experiment: Cell culture protection against re-infection with C. trachomatis; format: cell-based; conditions: single doses in cell culture
[8] = Phase 1 Study ABI-1648-009, food effect on PK of single 25-mg oral dose

For CO[C@H]1/C=C/O[C@@]2(C)Oc3c(C)c(O)c4c(=O)c(c5oc6cc(N7CCN(CC(C)C)CC7)cc(O)c6nc-5c4c3C2=O)NC(=O)/C(C)=C\C=C\[C@H](C)[C@H](O)[C@@H](C)[C@@H](O)[C@@H](C)[C@H](OC(C)=O)[C@@H]1C [rifalazil, 3′-hydroxy-5′-(4-isobutyl-1-piperazinyl) benzoxazinorifamycin], the “anti-chlamydial activity in patients with NGU” value ([1]; oral 25 mg) was “significant anti-chlamydial activity”, the “patients in whom Chlamydia was eradicated” value ([1]; single oral dose) was over 86% and the bioavailability ([2]; female rats, 3 mg/kg) was 28.9%. The bioavailability ([2]; female rats, 100 mg/kg) was 6.1%, the bioavailability ([2]; male rats, 3 mg/kg) was 43.5% and the bioavailability ([2]; male rats, 100 mg/kg) was 11.7%. It also gave a Vdβ/F ([2]; rats, oral administration) of 40 to 80 L/kg, a Vdβ/F ([3]; dogs, oral administration) of 40 to 80 L/kg and a bioavailability ([3]; plasma, po, beagle dog, 10 mg/kg) of 16 to 17%. It also gave a Kp ([4]; rat, liver, read-out: tissue to plasma ratio (AUC), liver) of 33.7, a Kp ([4]; rat, testes, read-out: tissue to plasma ratio (AUC), testes) of 4.9 and a concentration at 1 h ([4]; rat, wall of the GI tract, rats, single oral 3 mg/kg, at 1 hour) of 5400 ng/g. For the same molecule, the “tissue concentration, spleen” value ([4]; rats, single oral 3 mg/kg, at 8-12 hours post dose) was 5.1-9.3 μg/gm, the headache ([5]; 30 mg single oral dose (3/5 subjects)) was 38% and the “patients reporting AEs” value ([5]; 30 mg single oral dose (5/8)) was “Sixty-two”. The “WBC count nadir values, one subject” value ([5]; 30 mg single oral dose, Days 3 and 7, baseline 4.3×10^3) was 3.8×10^3 cells/mm^3, the “subjects with low WBC counts” value ([6]; 25 mg/week) was “three of six” and the tolerability ([6]; 25 mg/week) was “fairly well tolerated”. For the same molecule, the “lowest individual WBC value” ([6]; 25 mg/week, Day 25) was 2.2×10^3 /mm^3, the “subjects with low WBC counts” value ([6]; 50 mg/week) was 6 of 8 and the tolerability ([6]; 50 mg/week) was “not considered well tolerated”. For the same molecule, the “lowest individual WBC value” ([6]; 50 mg/week, Day 11) was 2.3×10^3 /mm^3, the “mean AST and ALT values” ([6]; 50 mg/week, not in the 25 mg/week group) was “transient increase” and the “subjects with Grade 4 lymphocyte toxicity” value ([6]; 25-mg/week) was 1 subject. For the same molecule, the “time for WBC values to return to baseline after cessation of dosing” value ([6]; 25 and 50 mg/week) was at most 2 weeks, the “subjects with Grade 4 lymphocyte toxicity” value ([6]; 50-mg/week) was 3 subjects and the “overall incidence of AEs” value ([6]; after the first weekly dose) was 33%. The “overall incidence of AEs” value ([6]; after the second and third weekly dose) was 12%, the “overall incidence of AEs” value ([6]; at the fourth weekly dose) was 0% and the neck pain ([6]; rifalazil group (1/6)) was 17%. For the same molecule, the back pain ([6]; rifalazil group (2/6)) was 33%, the chills ([6]; rifalazil group (3/6)) was 50% and the “insomnia, anorexia, nausea, thirst and vomiting (each)” value ([6]; rifalazil group (all in 1/6 patients)) was 17%. The asthenia ([6]; rifalazil-treated groups) was 33%, the dizziness ([6]; rifalazil-treated groups) was 50% and the fever ([6]; rifalazil-treated groups) was 67%. The headache ([6]; rifalazil-treated groups) was 67%, the pain ([6]; rifalazil-treated groups) was 50% and the “duration of protective effect against re-infection with C. trachomatis” value [7] was “up to 12 days”. The Tmax ([8]; male, human, plasma, oral, 25 mg) was about 3 h and the “absorption (Cmax and AUC) fasted versus fed” value ([8]; overnight fast compared with 30% or 60% fat meal, single 25 mg) was “lower”.
